# Test results: article PMC5786788, “Antimicrobial Octapeptin C4 Analogues Active against Cryptococcus Species” (Antimicrobial Agents and Chemotherapy, 2018)
# Like-named read-outs stand apart in the source and are kept apart here. Where a SMILES comes first, the peptide text is derived from it. Bridges are numbered along the chain shown (N, C = ends). [ ]: non-standard residue; d: D form. The star is where a group is joined. Decanoyl(3R-OH) = CCCCCCC[C@@H](O)CC(=O)*; dDab = NCC[C@@H](N)C(=O)O; Dab = NCC[C@H](N)C(=O)O
# Key:
# C. gattii MMRL 2651 = tested on: C. gattii MMRL 2651
# Procedure: (§1) A broth microdilution assay was initially used to characterize the antifungal activity of the cyclic lipopeptides ([39], [40]). […] common pathogenic yeasts (C. albicans, C. glabrata, C. parapsilosis, C. neoformans, and C. gattii) and one pathogenic mold (A. fumigatus) were tested to determine the MIC for each compound (Table 1) using broth microdilution. […] The only structural difference between these molecules is the presence of a phenylalanine residue at position 6 in PMB; in PME a D-leucine is present at this location (Fig. 1).
# (§2) Fungal strains were stored in 15% glycerol at −80°C until use. The fungal strains used were H99 (C. neoformans type strain) ([55]), cap59Δ (an acapsular H99 mutant) ([56]), ATCC 90113 (C. neoformans), MMRL 2651 (C. gattii), ATCC 90028 (Candida albicans), ATCC 90030 (Candida glabrata), ATCC 22019 (Candida parapsilosis), and ATCC MYA 3626 (Aspergillus fumigatus). Yeasts were cultured in liquid (1% yeast extract, 2% Bacto peptone, 2% glucose) or solid (additional 2% agar) yeast extract-peptone-dextrose (YPD) media at 30°C and maintained at 4°C for no longer than 2 weeks. A. fumigatus was prepared on potato dextrose medium at 30°C and maintained at 4°C for no longer than 2 weeks.
# (§3) The MICs of the yeast strains for PMB, PME, and octapeptin C4 and its derivatives were determined in accordance with CLSI M27-A2 guidelines using YNB (Becton Dickinson, USA) medium supplemented with 10 mM ammonium sulfate and 2% glucose, a final inoculum concentration of 1.5 × 10^3 to 2.0 × 10^3 cells/ml, and incubation at 35°C for 72 h ([39]). […] The MICs for PMB, PME, and octapeptin C4 for A. fumigatus were determined in accordance with the CLSI M38-A2 guidelines ([40]) using synthetic RPMI 1640 medium (with glutamine, without bicarbonate and with phenol red; Life Technologies, USA). The final inoculum concentration was 0.4 × 10^4 to 5 × 10^4 cells/ml, with incubation at 35°C for 48 h. […] All assays were completed in triplicate. Fluconazole was used as a positive control where the MIC was determined at both 50% growth (in accordance with CLSI M27-A2 guidelines) and when there was a “no visible growth” reading.
# C. neoformans ATCC 90113 = conditions: ATCC 90113, 72 h
# Procedure: as §1, §2, §3
# C. neoformans H99 = conditions: H99, 72 h
# Procedure: as §1, §2, §3
# [1] = tested on: C. neoformans H99 (cap59Δ); format: cell-based, Cryptococcus neoformans; conditions: Table 2; triplicate, values consistent across replicates
# Source text: The different susceptibility of C. neoformans and C. gattii to PMB compared to other pathogenic fungi such as C. albicans and A. fumigatus has been postulated to arise from differences in cell surface composition ([38]). One key difference is the presence of a negatively charged polysaccharide capsule in Cryptococcus spp. proposed to concentrate the cationic lipopeptides at the cell surface ([38]). To examine this potential interaction for the octapeptin series, a C. neoformans cap59Δ mutant strain deficient in the secretion of negatively charged glucuronoxylomannan (an α1–3-linked mannan containing β1,2 and β1,4 xylosyl substitutions, as well as β1,2-linked glucuronyl residues) ([41], [42]), was tested against octapeptin C4 in comparison to PMB.
# as §2, §3
Structure (SMILES),"MICs against various Cryptococcus strains: MMRL 2651 (C. gattii MMRL 2651; Table 2, C. gattii, triplicate, values consistent across replicates)",MICs against various Cryptococcus strains: ATCC 90113 (C. neoformans ATCC 90113),MICs against various Cryptococcus strains: H99 (C. neoformans H99),MICs against various Cryptococcus strains: H99 (cap59Δ) [1],MICs against various Cryptococcus strains: MMRL 2651 (C. gattii MMRL 2651; 72 h)
CCCCCCC[C@@H](O)CC(=O)N[C@H](CCN)C(=O)N[C@H]1CCNC(=O)[C@H](CC(C)C)NC(=O)[C@H](CCN)NC(=O)[C@H](CCN)NC(=O)[C@H](CC(C)C)NC(=O)[C@@H](Cc2ccccc2)NC(=O)[C@H](C)NC1=O [Compound P3] ({Decanoyl(3R-OH)}-[dDab][Dab]A[dF]L[Dab][Dab]L; lactam 2-C),12.5 µg/mL,6.25 µg/mL,6.25 µg/mL,12.5 µg/mL,–
CCCCCCC[C@@H](O)CC(=O)N[C@H](CCN)C(=O)N[C@H]1CCNC(=O)[C@H](CC(C)C)NC(=O)[C@H](CCN)NC(=O)[C@H](CCN)NC(=O)[C@H](CC(C)C)NC(=O)[C@@H](C)NC(=O)[C@H](CCN)NC1=O [Compound P4D] ({Decanoyl(3R-OH)}-[dDab][Dab][Dab][dA]L[Dab][Dab]L; lactam 2-C),–,12.5 µg/mL,12.5 µg/mL,50.0 µg/mL,25.0 µg/mL
CCCCCCC[C@@H](O)CC(=O)N[C@H](CCN)C(=O)N[C@H]1CCNC(=O)[C@H](CC(C)C)NC(=O)[C@H](CCN)NC(=O)[C@H](CCN)NC(=O)[C@H](CC(C)C)NC(=O)[C@H](C)NC(=O)[C@H](CCN)NC1=O [Compound P4L] ({Decanoyl(3R-OH)}-[dDab][Dab][Dab]AL[Dab][Dab]L; lactam 2-C),–,25.0 µg/mL,50.0 µg/mL,100.0 µg/mL,100 µg/mL
CCCCCCC[C@@H](O)CC(=O)N[C@H](CCN)C(=O)N[C@H]1CCNC(=O)[C@H](CC(C)C)NC(=O)[C@H](CCN)NC(=O)[C@H](CCN)NC(=O)[C@H](C)NC(=O)[C@@H](Cc2ccccc2)NC(=O)[C@H](CCN)NC1=O [Compound P5] ({Decanoyl(3R-OH)}-[dDab][Dab][Dab][dF]A[Dab][Dab]L; lactam 2-C),–,12.5 µg/mL,12.5 µg/mL,50.0 µg/mL,25.0 µg/mL
